We go through one compound from ChEMBL document CHEMBL1147326, “Goniotriol from Goniothalamus giganteus” (J Nat Prod, 1989).

Values after ≈ are worked out from the molar mass of the structure shown.

Series [1] has as its system Artemia. Description: Toxicity in brine shrimp. The settings on record: in vivo. Type of series: organism-based.
For series [2], the system named is A549. Nature of the series: Cytotoxicity against human A549 cells. It counts as functional. The settings on record: read-out: ED50 (the source's name).
Series [3] concerns MCF7. Nature of the series: Cytotoxicity against human MCF7 cells. It counts as functional. The settings on record: read-out: ED50 (the source's name).
For series [4], the system named is HT-29. Description: Cytotoxicity against human HT-29 cells. Conditions: read-out: ED50 (the source's name). Type of series: functional.
For series [5], the system named is Agrobacterium tumefaciens. Nature of the series: Antitumor activity against Agrobacterium tumefaciens-induced crown gall tumors in potato tuber by potato disk test. Type of series: functional.

For the compound `O=C1C=C[C@H](O)[C@H]([C@H](O)[C@H](O)c2ccccc2)O1` [GONIOTRIOL], the LC50 in series [1] is reported as 269 ppm. Further, the EC50 was over 10 µg/mL in series [2], 5.9 µg/mL (≈ 23.6 µM) in series [3] and over 10 µg/mL in series [4]. Further, in series [5], the “inhibition (INH)” value worked out at 38%.

The term LC50 denotes the concentration that kills 50% of the test population.
